PubChem BioAssay AID1159565 (GlaxoSmithKline (GSK), 2015)
Activity calls are given as the source filed them. How the calls were made is not given here.

Test system: T. cruzi-infected H9C2 cardiomyocytes, high-content imaging
Test: intracellular T. cruzi amastigote inhibition, imaging, H9C2 host cardiomyocytes, host toxicity (AID 1159565);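 further: infected cells incubated 72 h after plating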
[1] = measured here: H9C2 host cell toxicity
[2] = measured here: amastigotes per cell

SMILES | IC50 | IC50 [1] | IC50 [2]
O=C(CN(c1cccc(C(F)(F)F)c1)S(=O)(=O)c1ccc(Cl)cc1)NCc1ccc(F)c(F)c1 | 790 nM | > 50000 nM | 500 nM
Cc1cc(N(C)C)nc2ccc(Cc3cnc(N)nc3N)cc12 | 6300 nM | > 50000 nM | 3200 nM
Cc1nc(C(=O)Nc2ccc3c(c2)OCO3)nn1-c1ccc(Cl)cc1 | 1600 nM | > 50000 nM | 1000 nM
O=C(Nc1ccc(C(=O)N2CCCC2c2ccc3c(c2)OCCCO3)cc1)c1ccco1 (stereo not given) | 1000 nM | > 50000 nM | 630 nM
CC1(Oc2cncc(Cl)c2)CCN(Cc2cc3ccccc3[nH]2)C1 (stereo not given) | 1600 nM | 10000 nM | 1000 nM
Cc1ccc(NC(=O)c2ccc([N+](=O)[O-])s2)cc1S(=O)(=O)N1CCOCC1 | 400 nM | 5000 nM | 250 nM
CCc1ccc2nc(NC(=O)c3cc(N4CCOCC4)ccn3)sc2c1 | 790 nM | 40000 nM | 500 nM
Cc1nc2c(-c3cccs3)c(C)nn2c(NCCO)c1C | 32000 nM | > 50000 nM | 16000 nM
CC(C)(C)C(O)(CCc1ccc(Cl)cc1)Cn1cncn1 (stereo not given) | 250 nM | > 50000 nM | 200 nM
CN(C)c1ncc(-c2cncn2CCOc2ccc(Cl)cc2)cn1 | 250 nM | > 50000 nM | 200 nM
Cc1cc(=O)n2nc(Oc3ccc(C#N)cc3Cl)sc2n1 | 32000 nM | 32000 nM | 25000 nM
O=C(c1ccc(Cl)cc1)c1ccc(OC(=O)N2CCOCC2)cc1 | > 50000 nM (inactive) | > 50000 nM | 6300 nM
Cc1cccc(NS(=O)(=O)c2cnc3sc(C)cn3c2=O)c1 | 2000 nM | 6300 nM | 1000 nM
COc1ccc(NS(=O)(=O)c2cccc(NC(=O)c3cc(F)cc(F)c3)c2)cc1 | 500 nM | > 50000 nM | 500 nM
O=C(CN1CCC2(O)CCCCC2C1c1ccc2c(c1)OCO2)Nc1ccc(Cl)cc1Cl (stereo not given) | 5000 nM | > 50000 nM | 3200 nM
CC(C)(C)C(=O)NCCc1csc(-c2ccc(F)cc2)n1 | 3200 nM | > 50000 nM | 2500 nM
CC(=O)NCCNc1cc(-c2ccnc(Nc3cccc(Cl)c3)n2)ccn1 | 1600 nM | 400 nM | 160 nM
CC(C)(C)CC(=O)NCCc1csc(-c2ccc(F)cc2)n1 | 1000 nM | > 50000 nM | 790 nM

SMILES | IC50 | IC50 [1] | IC50 [2]
O=C(Nc1ccc(-c2nc3ccccc3c(=O)[nH]2)cc1)c1cccs1 | > 50000 nM (inactive) | > 50000 nM | > 50000 nM
CCOc1ccc(NC(=O)c2ccc(NC(=O)NC3CCCCC3)cc2)cc1 | > 50000 nM (inactive) | > 50000 nM | > 50000 nM
CCN(CC)c1ccc(S(=O)(=O)N(CC)CC)c2nonc12 | 50000 nM | > 50000 nM | 20000 nM
CNC(=O)Oc1ccc(C(=O)NCc2ccccc2)cc1OC(=O)NC | 40000 nM | > 50000 nM | 40000 nM
CCc1cccc(-n2nc(OCC(=O)NC3CCCC3)c3cccnc32)c1 | > 50000 nM (inactive) | > 50000 nM | > 50000 nM
Cc1nc2c(-c3nc(-c4ccc(N)cc4)n[nH]3)cccn2c1C | > 50000 nM (inactive) | 10000 nM | > 50000 nM
Cc1cc(Br)sc1CNCCCNc1cc(=O)c2ccccc2[nH]1 | 790 nM | 25000 nM | 500 nM
O=C(CCc1ccc(-c2ccccc2)o1)N1CCN(c2ccc(O)cc2)CC1 | 1300 nM | > 50000 nM | 790 nM
COc1ccc(CN2CCCCC2c2nc(-c3cccnc3)no2)cc1 (stereo not given) | 790 nM | > 50000 nM | 630 nM
CNC(=O)C1Cc2ccccc2N1C(=O)Cc1ccc(OC)cc1 (stereo not given) | > 50000 nM (inactive) | > 50000 nM | > 50000 nM
O=C(Nc1cccc(Cl)c1)Nc1ccc([N+](=O)[O-])cc1Cl | 2000 nM | 4000 nM | 1600 nM
c1ccc(CCNCc2cncc3nc(-c4cnccn4)n(C4CCCCC4)c23)cc1 | 130 nM | > 50000 nM | 130 nM
Cc1cc(C)nc(N2CCC(N(Cc3cccnc3)C(=O)c3cccc(C#N)c3)CC2)n1 | 320 nM | > 50000 nM | 400 nM
CCn1c(-c2nonc2N)nc2c([C@@H](C)O)ncc(O[C@H](CN)c3ccccc3)c21 | 10000 nM | 630 nM | 7900 nM
COc1ncc(-c2ccc3nccc(-c4ccncc4)c3c2)cc1NS(=O)(=O)C1CC1 | 2500 nM | 790 nM | 2000 nM
CCNc1cc(-c2ccccn2)nc(Nc2ccc(OC)cc2)n1 | 3200 nM | 320 nM | 2500 nM
CN(C)CCOc1ccc(N2CCN(S(=O)(=O)c3ccc(Cl)cc3)CC2)cc1 | 630 nM | > 50000 nM | 500 nM
